# Laboratory results reported in patent US20220112237A1, “AMINO ACID COMPOSITION HAVING CO-AMORPHOUS STRUCTURE” (AJINOMOTO CO., INC., priority 2019, published 2022).
# Legend:
# [1] = Confirmation of formation of amorphous product by powder X-ray diffraction; format: physicochemical; conditions: Cys2 with Arg or Cys2 alone, ball mill as Example 1, 30° C., FIG. 6
# Procedure: The solid powder obtained in (1) was measured by the powder X-ray diffraction apparatus (“Empyrean”, manufactured by Malvern Panalytical), and the powder X-ray diffraction patterns of the solid were obtained. In the drawing, line a represents the pattern of the mixture at time zero, line b represents time zero plus 4 hours, and line c represents time zero plus 12 hours. As a result, a well-defined peak characteristic of crystal structure was not found. From this, it was confirmed that the solid obtained in (1) was amorphous.
# The solid obtained in (1) was measured by the same powder X-ray diffraction apparatus as Example 1, and the powder X-ray diffraction patterns of the solid are shown in FIG. 4.
# The solid obtained in (1) was measured by the same powder X-ray diffraction apparatus as Example 1, and the powder X-ray diffraction patterns were obtained. […]
# The solid obtained in (1) was measured by the same powder X-ray diffraction apparatus as Example 1, and the powder X-ray diffraction patterns of the solid are shown in FIG. 7.
# The solid obtained in (1) was measured by the same powder X-ray diffraction apparatus as Example 1, and the powder X-ray diffraction patterns of the solid are shown in FIG. 8.
# The solid obtained in (1) was measured by the same powder X-ray diffraction apparatus as Example 1, and the powder X-ray diffraction patterns of the solid are shown in FIG. 9. […]
# [2] = Test to confirm the dissolved amount (Tyr concentration of supernatant by HPLC); format: physicochemical; conditions: 130 mg in 100 mL water, pH 6.5-7.5, 25° C., stirred, after 24 hours
# Procedure: […] After the powder was dissolved completely, the pH was adjusted using 5 mol/L hydrochloric acid to be within the range of 6.5-7.5. Bottles A-D were immersed in a water bath (“NCG-3300”, manufactured by Tokyo Rikakikai Co., Ltd.) at 25° C., and bottles A and C were stirred by the magnetic stirrer, and bottles B and D were allowed to stand without stirring. After 2 hours, 2 mL was sampled from each bottle, and filtered using a 0.45 μm filter (“Millex”, Merck). The filtered sample was diluted 50 times, and the Tyr concentration of the supernatant was determined using high-performance liquid chromatography (HPLC) (“1100 Series”, manufactured by Agilent).
# The above process was conducted again after 24 hours, 48 hours, and 333 hours. In the drawing, ◯, Δ, ● and ▴ represent A (stirred, 138 mg), B (allowed to stand, 138 mg), C (stirred, 220 mg) and D (allowed to stand, 220 mg), respectively. […]
# After 5 minutes, 10 minutes, 30 minutes, 1 hour, 2 hours, 24 hours, and 168 hours from the start of stirring, 2 mL was sampled from each sample bottle, and filtered using the 0.45 […] filter (“Millex”, Merck). The filtered sample was diluted 50 times, and the Tyr concentration of the supernatant was determined using the high-performance liquid chromatography (HPLC) (“1100 Series”, manufactured by Agilent).
SMILES,Formation of amorphous product after pulverization [1],Tyr concentration of the supernatant [2] [mg/L]
"N[C@@H](CSSC[C@H](N)C(=O)O)C(=O)O [compound 7, Cystine]",the crystal property remained,–
"N[C@@H](Cc1ccc(O)cc1)C(=O)O [Tyr crystal, tyrosine]",–,430
